According to US20250295609A1, “COMPOUND HAVING ANTI-ANDROGEN RECEPTOR ACTIVITY, AND USE THEREOF” (NANJING MINOVA PHARMACEUTICAL CO., LTD., priority 2022, published 2025):

Target: T1, AR protein expression in human prostate cancer cells LNCaP (Homo sapiens, UniProt P10275, T878A)
T1 sequence (P10275 1-920 T878A): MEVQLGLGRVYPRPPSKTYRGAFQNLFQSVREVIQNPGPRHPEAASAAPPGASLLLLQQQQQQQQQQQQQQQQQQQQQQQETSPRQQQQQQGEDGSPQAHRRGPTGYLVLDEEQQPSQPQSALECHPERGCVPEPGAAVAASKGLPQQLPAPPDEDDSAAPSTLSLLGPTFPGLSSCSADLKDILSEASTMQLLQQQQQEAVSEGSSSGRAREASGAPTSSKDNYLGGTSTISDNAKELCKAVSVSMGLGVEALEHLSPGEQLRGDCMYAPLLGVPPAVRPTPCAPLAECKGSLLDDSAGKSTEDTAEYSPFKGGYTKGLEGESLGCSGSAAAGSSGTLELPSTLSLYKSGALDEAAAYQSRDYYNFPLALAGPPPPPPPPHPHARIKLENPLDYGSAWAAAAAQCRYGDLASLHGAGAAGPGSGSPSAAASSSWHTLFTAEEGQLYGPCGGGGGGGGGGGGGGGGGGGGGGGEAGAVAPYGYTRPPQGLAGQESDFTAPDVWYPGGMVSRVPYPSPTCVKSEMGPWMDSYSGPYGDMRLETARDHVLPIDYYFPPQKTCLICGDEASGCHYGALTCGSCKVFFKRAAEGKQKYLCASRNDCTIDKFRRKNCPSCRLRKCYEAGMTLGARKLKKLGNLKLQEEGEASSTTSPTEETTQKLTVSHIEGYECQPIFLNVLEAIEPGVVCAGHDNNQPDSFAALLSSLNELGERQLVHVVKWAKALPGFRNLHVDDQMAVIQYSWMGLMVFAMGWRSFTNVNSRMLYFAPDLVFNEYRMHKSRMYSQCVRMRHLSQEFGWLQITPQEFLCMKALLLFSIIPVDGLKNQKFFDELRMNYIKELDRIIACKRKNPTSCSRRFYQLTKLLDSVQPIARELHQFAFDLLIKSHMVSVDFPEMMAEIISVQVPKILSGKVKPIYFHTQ
Experiment: Reduction of AR protein expression in LNCaP cells (Western blot, with DHT)
Format: cell-based
Conditions: 1 nM DHT; for anti-AR activity (in words): Western blot; for AR reduction percentage / Relative potency (anti-AR activity): 48 h; for Relative potency (anti-AR activity): concentration basis not given
Description: The term “anti-AR activity” refers to the ability of the compound of the present disclosure to reduce AR expression in human prostate cancer cells LNCaP, and the ability of the compound of the present disclosure to reduce AR expression is expressed in AR reduction percentage (%) herein. […] The AR reduction percentage (%) is calculated as follows: AR reduction percentage (%)=(AR in DHT group/GAPDH value−AR in test compound group/GAPDH value)/AR in DHT group/GAPDH value×100%.
AR is a key factor for regulating the response of prostate cancer cells to androgens. AR is also a key factor for the response of hair follicles or tissues around the hair follicles to androgens, and the reduction of the AR content not only can down-regulate the growth of the prostate cancer cells, but also can inhibit androgenetic alopecia. This test example is to test the effects of the compounds of the present disclosure on the reduction of AR protein expression in human prostate cancer cells LNCaP in the presence of DHT. The compounds of the present disclosure were analyzed for anti-AR activity in human prostate cancer cells LNCaP by measuring the reduction of AR protein using the Western blot method.
Human prostate cancer cells LNCaP were seeded in a 6-well plate at 4×10^5 cells/mL and at a volume of 2 mL per well. The plate was incubated overnight in a cell incubator. DMSO and dihydrotestosterone (DHT, 1 nM) were used as control groups. Assays were performed in the presence of dihydrotestosterone (DHT, 1 nM). After incubating with the test compounds for a specified time, the cells were collected and dissolved according to the Western blot technique known in the biochemical art. A DMSO group, a DHT group (1 nM) and test compound groups (containing 1 nM DHT) were set during the assay. DMSO and DHT (1 nM DHT) were added to 6-well plates corresponding to the DMSO group and the DHT group, respectively. […] The protein concentration was quantified using the BCA kit, and then the samples were stored for later use.
The content of the AR protein in each group was determined by using Western Blot, and the loading amount of the sample in each group was […]. Western blot analysis has been disclosed in the prior art. Specifically, the cells were collected in 2× sodium dodecyl sulfate/polyacrylamide gel electrophoresis loading buffer or in radioimmunoprecipitation assay (RIPA) buffer strengthened with 10 μg/mL benzamidine, 10 μg/mL trypsin inhibitor, and 1 mM phenylmethylsulfonyl fluoride. A sample of total protein (about 40 μg) from each cell lysate was separated by electrophoresis on an SDS/PAGE gel. After separation by electrophoresis, the proteins were transferred from the gel to a nitrocellulose membrane following the standard procedures. The membrane was then incubated with 10% non-fat milk in phosphate-buffered saline supplemented with 0.1% Tween 20 (PBST) for 1 h, followed by incubation with a primary human AR-specific antibody (purchased from BD-Harlingen) at 4° C. overnight. After incubation, the membrane was washed 3 times with PBST buffer, each for 10 mins. An alkaline phosphatase-conjugated secondary antibody was then added, and the membrane was incubated at room temperature for 1 h. After the secondary incubation, the membrane was washed again with PBST, and the AR protein signal in the membrane was visualized by adding an alkaline phosphatase medium, bromochloroindolyl phosphate, and nitrotetrazole to the membrane. To ensure that an equal amount of protein from each sample was analyzed, a portion of the membrane was kept with a specific antibody for the regulatory protein GAPDH (Santa Cruz Biotechnology), and the GAPDH signal was visualized with the secondary antibody described above. The protein signal intensity (as indicated by color bands on the membrane) was measured using a densitometer and analyzed by the NIH Image J software (NIH1.33).

| SMILES | anti-AR activity (in words) | AR reduction percentage (2.5 μmol/L compound) [%] | AR reduction percentage (5 μmol/L compound) [%] | AR reduction percentage (10 μmol/L compound) [%] | Relative potency (anti-AR activity) |
| --- | --- | --- | --- | --- | --- |
| COc1ccc(/C=C/C(=O)C2(C(=O)/C=C/c3ccc(OC)c(OC)c3)CCC(F)(F)CC2)cc1OC [Compound 8] | significant anti-AR activities | 57.5 | 87.3 | 92.2 | ++++++ (75 < * ≤ 100) |
| COc1ccc(/C=C/C(=O)C2(C(=O)/C=C/c3ccc(OC)c(OC)c3)CCC(=O)CC2)cc1OC [Compound 7] | significant anti-AR activities | 0 | 67.3 | 95.6 | +++++ (62.5 < * ≤ 75) |
